Assay results as given in PubChem BioAssay AID1259407 (Chemical Carcinogenesis Research Information System (CCRIS), 2018).
Active and inactive are the calls of the source. The rule behind the calls is not given here.

Tested on: CCRIS mutagenicity, Ames/micronucleus/aberration tests
Experiment: CCRIS mutagenicity studies
[1] = Test System: AMES SALMONELLA TYPHIMURIUM, Strain/Indicator: TA98, Metabolic Activation: NONE, Method: STANDARD PLATE
[2] = Test System: AMES SALMONELLA TYPHIMURIUM, Strain/Indicator: TA1535, Metabolic Activation: HAMSTER, LIVER, S-9, AROCLOR 1254, Method: STANDARD PLATE
[3] = Test System: AMES SALMONELLA TYPHIMURIUM, Strain/Indicator: TA1535, Metabolic Activation: NONE, Method: STANDARD PLATE
[4] = Test System: AMES SALMONELLA TYPHIMURIUM, Strain/Indicator: TA100, Metabolic Activation: NONE, Method: STANDARD PLATE
[5] = Test System: AMES SALMONELLA TYPHIMURIUM, Strain/Indicator: TA98, Metabolic Activation: NONE, Method: PREINCUBATION
[6] = Test System: AMES SALMONELLA TYPHIMURIUM, Strain/Indicator: TA100, Metabolic Activation: NONE, Method: PREINCUBATION

Nc1cccc2c(N)cccc12
mutagenic call [1]: inactive; negative
mutagenic call (Test System: AMES SALMONELLA TYPHIMURIUM, Strain/Indicator: TA98, Metabolic Activation: RAT, LIVER, S-9, Method: STANDARD PLATE): inactive; negative
mutagenic call [2]: inactive; negative
mutagenic call (Test System: AMES SALMONELLA TYPHIMURIUM, Strain/Indicator: TA1535, Metabolic Activation: HAMSTER, LIVER, S-9, Method: STANDARD PLATE): inactive; negative
mutagenic call (Test System: AMES SALMONELLA TYPHIMURIUM, Strain/Indicator: TA1535, Metabolic Activation: MOUSE, LIVER, S-9, AROCLOR 1254, Method: STANDARD PLATE): inactive; negative
mutagenic call (Test System: AMES SALMONELLA TYPHIMURIUM, Strain/Indicator: TA1535, Metabolic Activation: MOUSE, LIVER, S-9, Method: STANDARD PLATE): inactive; negative
mutagenic call [3]: inactive; negative
mutagenic call (Test System: AMES SALMONELLA TYPHIMURIUM, Strain/Indicator: TA1535, Metabolic Activation: RAT, LIVER, S-9, AROCLOR 1254, Method: STANDARD PLATE): inactive; negative
mutagenic call (Test System: AMES SALMONELLA TYPHIMURIUM, Strain/Indicator: TA1535, Metabolic Activation: RAT, LIVER, S-9, Method: STANDARD PLATE): inactive; negative
mutagenic call (Test System: AMES SALMONELLA TYPHIMURIUM, Strain/Indicator: TA1537, Metabolic Activation: HAMSTER, LIVER, S-9, AROCLOR 1254, Method: STANDARD PLATE): active; positive
mutagenic call (Test System: AMES SALMONELLA TYPHIMURIUM, Strain/Indicator: TA1537, Metabolic Activation: MOUSE, LIVER, S-9, Method: STANDARD PLATE): inactive; negative
mutagenic call (Test System: AMES SALMONELLA TYPHIMURIUM, Strain/Indicator: TA1537, Metabolic Activation: RAT, LIVER, S-9, Method: STANDARD PLATE): inactive; negative
mutagenic call (Test System: AMES SALMONELLA TYPHIMURIUM, Strain/Indicator: TA1538, Metabolic Activation: MOUSE, LIVER, S-9, AROCLOR 1254, Method: STANDARD PLATE): inactive; negative
mutagenic call (Test System: AMES SALMONELLA TYPHIMURIUM, Strain/Indicator: TA1538, Metabolic Activation: MOUSE, LIVER, S-9, Method: STANDARD PLATE): inactive; negative
mutagenic call (Test System: AMES SALMONELLA TYPHIMURIUM, Strain/Indicator: TA1538, Metabolic Activation: NONE, Method: STANDARD PLATE): inactive; negative
mutagenic call (Test System: AMES SALMONELLA TYPHIMURIUM, Strain/Indicator: TA1538, Metabolic Activation: RAT, LIVER, S-9, Method: STANDARD PLATE): inactive; negative
mutagenic call (Test System: E. COLI, Strain/Indicator: WP2 UVRA, Metabolic Activation: HAMSTER, LIVER, S-9, AROCLOR 1254, Method: STANDARD PLATE): inactive; negative
mutagenic call (Test System: E. COLI, Strain/Indicator: WP2 UVRA, Metabolic Activation: HAMSTER, LIVER, S-9, Method: STANDARD PLATE): inactive; negative
mutagenic call (Test System: E. COLI, Strain/Indicator: WP2 UVRA, Metabolic Activation: MOUSE, LIVER, S-9, AROCLOR 1254, Method: STANDARD PLATE): inactive; negative
mutagenic call (Test System: E. COLI, Strain/Indicator: WP2 UVRA, Metabolic Activation: MOUSE, LIVER, S-9, Method: STANDARD PLATE): inactive; negative
mutagenic call (Test System: E. COLI, Strain/Indicator: WP2 UVRA, Metabolic Activation: NONE, Method: STANDARD PLATE): inactive; negative
mutagenic call (Test System: E. COLI, Strain/Indicator: WP2 UVRA, Metabolic Activation: RAT, LIVER, S-9, AROCLOR 1254, Method: STANDARD PLATE): inactive; negative
mutagenic call (Test System: E. COLI, Strain/Indicator: WP2 UVRA, Metabolic Activation: RAT, LIVER, S-9, Method: STANDARD PLATE): inactive; negative

C=C(C)c1ccc(C)c2ccc(C=O)c-2c1
mutagenic call [1]: inactive; negative
mutagenic call (Test System: AMES SALMONELLA TYPHIMURIUM, Strain/Indicator: TA98, Metabolic Activation: RAT, LIVER, S-9, AROCLOR 1254, Method: STANDARD PLATE): active; positive
mutagenic call [4]: inactive; negative
mutagenic call (Test System: AMES SALMONELLA TYPHIMURIUM, Strain/Indicator: TA100, Metabolic Activation: RAT, LIVER, S-9, AROCLOR 1254, Method: STANDARD PLATE): active; positive

c1ccc2c(c1)CC[C@H]1CCC[C@@H]3O[C@]213
mutagenic call [1]: inactive; negative
mutagenic call [4]: inactive; negative

OCCN1CCNCC1
mutagenic call [5]: inactive; negative
mutagenic call (Test System: AMES SALMONELLA TYPHIMURIUM, Strain/Indicator: TA98, Metabolic Activation: RAT, LIVER, S-9, PCB, Method: PREINCUBATION): inactive; negative
mutagenic call [6]: inactive; negative
mutagenic call (Test System: AMES SALMONELLA TYPHIMURIUM, Strain/Indicator: TA100, Metabolic Activation: RAT, LIVER, S-9, PCB, Method: PREINCUBATION): inactive; negative

N[C@@H](CS/C(Cl)=C(\Cl)C(Cl)(Cl)Cl)C(=O)O
mutagenic call [6]: active; positive
mutagenic call (Test System: AMES SALMONELLA TYPHIMURIUM, Strain/Indicator: TA100, Metabolic Activation: RAT, LIVER OR KIDNEY, MICROSOMES, Method: PREINCUBATION): active; positive

COc1cccc(CN(C)N=O)c1
mutagenic call [2]: active; positive
mutagenic call [3]: inactive; negative

O=S(=O)(O)c1ccc(N=Nc2c(O)c(S(=O)(=O)O)cc3cc(S(=O)(=O)O)ccc23)cc1
mutagenic call [5]: inactive; negative
mutagenic call (Test System: AMES SALMONELLA TYPHIMURIUM, Strain/Indicator: TA98, Metabolic Activation: RAT, LIVER, S-9, PHENOBARBITAL, Method: PREINCUBATION): inactive; negative
mutagenic call [6]: inactive; negative
mutagenic call (Test System: AMES SALMONELLA TYPHIMURIUM, Strain/Indicator: TA100, Metabolic Activation: RAT, LIVER, S-9, PHENOBARBITAL, Method: PREINCUBATION): inactive; negative
